What follows are substances tested on CSF-1 (assay: Quantification of CSF-1 secreted by NS2T2A1 cells transfected with oligonucleotides (ELISA)). Details: 250 nM oligonucleotide with 2.4 μg/ml cytofectin GS-3815, ELISA of culture medium 24 h after beginning of transfection, relative to non-transfected cell line.
Format: cell-based, human
Experimental: Line NS2T2A1 is a line of cells from the human breast (Ma et al., Int. J. Cancer, 1998, 78: 112-119) obtained by mammoplasty, transformed by SV40. This line secretes CSF-1 linearly as a function of the cell growth.
The cells were cultivated in medium M5 (Gibco, France) complemented with 5% of -horse serum as described by Ma et al. (Int. J. Cancer, 1998, 78:112-119). Seeding was done in 6 well plates at a concentration, of 5×10^5 cells/ml/well. Transfection by oligonucleotides was done 24 h later, when the cells were in the exponential growth phase and they had reached 60% to 80% of confluence.
Transfection by oligonucleotides was done using cytofectin GS-3815 (Glen research, Sterling. Va.). Oligonucleotides and cytofectin were diluted separately in polystyrene tubes with the opti-MEM medium (Gibco, France), and the cytofectin was mixed with an equal volume of diluted oligonucleotides. The mix was left for 15 minutes at ambient temperature to enable the formation of oligonucleotide/cytofectin complexes. Finally, the M5 medium was added to the solution to obtain final concentrations equal to 2.4 μg/ml of cytofectin and 250 nM of oligonucleotides. All transfections were done in the M5 medium and in a final volume of 1 ml. Oligonucleotide/cytofectin complexes were left in contact with cells for 24 h. All steps described above were done under sterile conditions.
All experiments were done in triplicate for each concentration of oligonucleotides.
The quantity of CSF-1 secreted in the culture medium of NS2T2A1 cells was-measured by an ELISA test, 24 h after the beginning of the transfection, referring strictly to the protocol described by the supplier (R&D systems, Europe Ltd, UK). The results are expressed as a percentage of CSF-1 expressed by the transfected cells with respect to the CSF-1 expressed by a non-transfected cell line.

In order of rising “Percentage of CSF-1 expressed” value:
1. SEQ ID No. 3: phosphorothioate oligonucleotide with pdU/pdC base substitutions, hybridising region 284-301 of SEQ ID No. 1 (CSF-1) (UCUGGAGCAGGUUAAU; listed as RNA, chemistry not fully specified)  39%
2. SEQ ID No. 4: phosphorothioate oligonucleotide with pdU/pdC base substitutions, hybridising region 341-358 of SEQ ID No. 1 (CSF-1) (ACACGAUGGAAUUCUUCC; listed as RNA, chemistry not fully specified)  50%
3. SEQ ID No. 2: phosphorothioate oligonucleotide with pdU/pdC base substitutions, hybridising region 135-152 of SEQ ID No. 1 (CSF-1) (GGGAGGGUGCUGUACCGA; listed as RNA, chemistry not fully specified)  70%
4. SEQ ID No. 5: phosphorothioate oligonucleotide with pdU/pdC base substitutions, hybridising region 409-426 of SEQ ID No. 1 (CSF-1) (UUGUGGCGGUUAGGGUAG; listed as RNA, chemistry not fully specified)  90%

Source: patent publication US20050245471A1, “Combination products for use in antitumoral treatment” (priority 2002, published 2005)
